Results taken from patent publication US11548913B2, “Therapeutic compositions including peptides and uses thereof” (Stealth BioTherapeutics Inc., priority 2015, dated 2023).
“Also recorded” adds a separate entry of the source. Square brackets hold non-standard residues; d marks the D form. Peptide text beside a SMILES is read from it. Dmt = Cc1cc(O)cc(C)c1C[C@H](N)C(=O)O; dOrn = NCCC[C@@H](N)C(=O)O

How the values were obtained:
[1] = test system: Excised Sprague-Dawley rat hearts; assay: Modified Langendorff rat heart model, ischemia/reperfusion with peptide in the reperfusion buffer (Example 1); settings: 1 μM peptide in Krebs buffer during 2 hours reperfusion after 20 min global no-flow ischemia; compared to controls
Procedure: (§1) The Langendorff rodent heart model is widely employed in studies of myocardial function and responses to injury (e.g., ischemia). For whole-heart studies, male Sprague-Dawley rats (7-9 weeks old) were injected with pentobarbital (35 mg/kg, ip injection) and hearts were excised with midline thoracotomy. The aortas were secured around a cannula of a modified Langendorff apparatus and retrogradely perfused (perfusion pressure of 75 mm Hg) with a modified Krebs-Henseleit buffer containing (in mM): 118 NaCl, 24 NaHCO3, 4.75 KCl, 1.2 KH2PO4, 1.2 MgSO4, 2.0 CaCl2, and 10 glucose (gassed with 95/5% O2/CO2). Hearts were bathed in a buffer-filled perfusion chamber maintained at 37° C. for the duration of the experiments. Following the initiation of perfusion, hearts were instrumented for the simultaneous observation of mechanical and electrical function. A buffer-filled latex balloon (size 5, Harvard Apparatus, Holliston, Mass., USA), calibrated at the beginning of each day using a digital manometer, was inserted into the left ventricle (via the mitral valve) for the measurement of left ventricular developed pressure (LVDP), with balloon volume adjusted to establish a diastolic pressure of 5-8 mm Hg. Three electrodes were placed into the buffer filled perfusion chamber for the measurement of the volume-conducted electrocardiogram (ECG). Coronary flow rates were monitored constantly with a flow probe (Transconic Systems, Ithaca, N.Y., USA) connected in series with the perfusion line, and normalized to heart wet weight (in grams) at the end of each experiment. All physiological parameters were continuously monitored and stored on a personal computer using commercially available software (Chart, AD Instruments, Colorado Springs, Colo., USA). Heart rate was calculated using the LVDP trace, and maximal rates of contraction(+dP/dt) and relaxation (−dP/dt) were calculated using the derivative of the LVDP trace.
Following a 10 minute baseline period, ischemia/reperfusion was initiated. Hearts were exposed to global no-flow ischemia by stopping perfusion for 20 min. At the end of the index ischemia, static buffer from the perfusion lines was washed out (via an accessory port proximal to the aortic cannula), and reperfusion ensued for 2 hours either with Krebs buffer alone (control) or Krebs buffer containing an experimental peptide at a concentration of 1 μM. Peptides tested included D-Arg-D-Dmt-D-Lys-L-Phe-NH2 (SBT-46), D-Arg-L-DMT-L-Ala-L-Phe-NH2 (SBT-68), (Ac)-D-Arg-L-DMT-L-Lys-L-Phe-NH2 (SBT-85), D-Arg-L-Dmt-L-His-L-Phe-NH2(SBT-100), D-Arg-L-DMT-L-Orn-L-Phe-NH2 (SBT-102), D-Orn-L-DMT-L-Lys-L-Phe-NH2(SBT-131), D-(Amidine)Arg(propylamine)-L-DMT-L-Lys-L-Phe-NH2 (SBT-140), and D-Arg(butylamidine analog)-L-DMT-L-Lys-L-Phe-NH2(SBT-149). At the end of reperfusion, the left ventricle was dissected, sliced into 5 mm-thick slices, incubated in 1% triphenyltetrazolium chloride (TTC) for 10 min (37° C.) and digitally photographed for subsequent infarct size analysis. Infarct size was expressed as a percentage of the left ventricle (% area at risk (AAR))(calculated using ImageJ software, NIH, Bethesda, Md., USA).

[2] = test system: excised rat hearts; assay: Modified Langendorff rat heart model, peptide pre-treatment before ischemia/reperfusion (Example 2); settings: hearts bathed 2 hours in 1 μM peptide before 20 min ischemia and 2 hours reperfusion; vs SBT-46, SBT-102 and controls; anticipated
Procedure: as §1, with “are” for “were”, “USA), which is” for “USA),”, “is” for “was”
Prior to the initiation of ischemia/reperfusion, the excised rat hearts are bathed in buffer containing an experimental peptide at a concentration of 1 μM or buffer alone (control) for two hours. The experimental peptide is selected from D-Arg-D-Dmt-D-Lys-L-Phe-NH2 (SBT-46), D-Arg-L-DMT-L-Ala-L-Phe-NH2 (SBT-68), (Ac)-D-Arg-L-DMT-L-Lys-L-Phe-NH2 (SBT-85), D-Arg-L-Dmt-L-His-L-Phe-NH2(SBT-100), D-Arg-L-DMT-L-Orn-L-Phe-NH2 (SBT-102), D-Orn-L-DMT-L-Lys-L-Phe-NH2(SBT-131), D-(Amidine)Arg(propylamine)-L-DMT-L-Lys-L-Phe-NH2(SBT-140), and D-Arg(butylamidine analog)-L-DMT-L-Lys-L-Phe-NH2 (SBT-149). Following a 10 minute baseline period, ischemia/reperfusion is initiated. Hearts are exposed to global no-flow ischemia by stopping perfusion for 20 min. At the end of the index ischemia, static buffer from the perfusion lines is washed out (via an accessory port proximal to the aortic cannula), and reperfusion ensues for 2 hours with Krebs buffer. At the end of reperfusion, the left ventricle is dissected, sliced into 5 mm-thick slices, incubated in 1% triphenyltetrazolium chloride (TTC) for 10 min (37° C.) and digitally photographed for subsequent infarct size analysis. Infarct size is expressed as a percentage of the left ventricle (% area at risk (AAR))(calculated using ImageJ software, NIH, Bethesda, Md., USA).

Row | SMILES | attenuation of cardiac ischemia injury and ischemia-reperfusion injury [1] | infarct size expressed as a percentage of area at risk (AAR) [1] | left ventricular developed pressure (LVDP) [1] | maximal rates of contraction (+dP/dt) [1] | maximal rates of relaxation (−dP/dt) [1] | LVDP [2] | infarct size [2] | maximal rates of contraction (+dP/dt) [2] | maximal rates of relaxation (−dP/dt) [2]
1 | Cc1cc(O)cc(C)c1C[C@H](NC(=O)[C@H](N)CCCN)C(=O)N[C@@H](CCCCN)C(=O)N[C@@H](Cc1ccccc1)C(N)=O [SBT-131, D-Orn-L-DMT-L-Lys-L-Phe-NH2] (H-[dOrn][Dmt]KF-NH2) | able to attenuate cardiac ischemia injury and ischemia-reperfusion injury; also recorded: attenuation of cardiac ischemia-reperfusion injury | reduced infarct size | increased LVDP | increased maximal rates of contraction | increased maximal rates of relaxation | increased LVDP | reduced infarct size | increased maximal rates of contraction | increased maximal rates of relaxation
2 | CC(=O)N[C@H](CCCNC(=N)N)C(=O)N[C@@H](Cc1c(C)cc(O)cc1C)C(=O)N[C@@H](CCCCN)C(=O)N[C@@H](Cc1ccccc1)C(N)=O [SBT-85, (Ac)-D-Arg-L-DMT-L-Lys-L-Phe-NH2] (Ac-[dR][Dmt]KF-NH2) | able to attenuate cardiac ischemia injury and ischemia-reperfusion injury; also recorded: attenuation of cardiac ischemia-reperfusion injury | reduced infarct size | increased LVDP | increased maximal rates of contraction | increased maximal rates of relaxation | increased LVDP | reduced infarct size | increased maximal rates of contraction | increased maximal rates of relaxation
